Results taken from the supplement of paper PMC9549728.
Structures can show the parent of a compound that is named as a salt.

Assays:
Experiment in all cases: IC50 (viability, PrestoBlue) (log10 nM)
Conditions in all cases: exposure time: 72 h
[1] = test system: murine gastric organoid diffuse (Cdh1 fl/fl; Apc fl/fl)
Method: (§1)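 Murine gastric corpus organoids (normal uninduced; RAS-activated Kras G12D/Tp53 R172H; diffuse Cdh1/Apc loss; WNT-activated Apc loss/Tp53 R172H) were seeded in Matrigel into pre-spotted 384-well plates. The plates held a 196-compound library at 6.7 nM to 25,004 nM (9 doses) and were incubated 72 h. Viability was read by PrestoBlue fluorescence (560/590 nm). IC50 came from non-linear regression (Prism), reported as log10 IC50 in nM, mean of 3 passages x 2 wells.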

[2] = test system: murine gastric organoid RAS-activated (Kras G12D; Tp53 R172H)
Method: as §1

[3] = test system: murine gastric organoid WNT-activated (Apc fl/fl; Tp53 R172H)
Method: as §1

[4] = test system: murine normal gastric organoid
Method: as §1

Row | Structure (SMILES) | IC50 (log10 nM) [1] | IC50 (log10 nM) [2] | IC50 (log10 nM) [3] | IC50 (log10 nM) [4]
1 | O=c1[nH]c(=O)n([C@H]2C[C@H](O)[C@@H](CO)O2)cc1F [Floxuridine] | 3.8 | 3.16 | 1.61 | 2.96
2 | COc1ccc(/C=C\c2cc(OC)c(OC)c(OC)c2)cc1OP(=O)(O)O [Fosbretabulin disodium] | 2.47 | 2.23 | 1.85 | < 0.826
3 | CN(C)c1ccccc1CN1CCCN(Cc2ccccc2N(C)C)C1c1ccncc1 [GANT-61] | 2.53 | 1.22 | 2.6 | 1.27
4 | Cn1nccc1Nc1nccc(-c2ccn([C@H](CO)c3ccc(Cl)c(F)c3)c(=O)c2)n1 [GDC-0994] | 3.23 | 4.35 | 2.88 | 3.71
5 | CC(C)c1cc(-c2n[nH]c(=O)n2-c2ccc3c(ccn3C)c2)c(O)cc1O [Ganetespib] | 1.5 | 1.59 | < 0.826 | 1.59
6 | COc1cc2ncnc(Nc3ccc(F)c(Cl)c3)c2cc1OCCCN1CCOCC1 [Gefitinib] | 2.65 | 4.06 | 2.38 | 1.98
7 | Nc1ccn([C@@H]2O[C@H](CO)[C@@H](O)C2(F)F)c(=O)n1 [Gemcitabine] | 1.53 | 1.54 | 1.74 | 1.23
8 | COC(=O)C[C@](O)(CCCC(C)(C)O)C(=O)O[C@@H]1C(OC)=C[C@]23CCCN2CCc2cc4c(cc2[C@H]13)OCO4 [Homoharringtonine] | 1.82 | 1.56 | 0.956 | 1.91
9 | C=CCc1ccc(O)c(-c2ccc(O)c(CC=C)c2)c1 [Honokiol] | 4.28 | 4.12 | 3.87 | 3.97
10 | CC(C)n1nc(-c2ccc3oc(N)nc3c2)c2c(N)ncnc21 [INK 128] | 1.42 | 1.45 | > 4.4 | 1.21
11 | C=CC(=O)N1CCC[C@@H](n2nc(-c3ccc(Oc4ccccc4)cc3)c3c(N)ncnc32)C1 [Ibrutinib] | 2.53 | 4.23 | 2.48 | 2.2
12 | CC(=O)[C@]1(O)Cc2c(O)c3c(c(O)c2[C@@H](O[C@H]2C[C@H](N)[C@H](O)[C@H](C)O2)C1)C(=O)c1ccccc1C3=O [Idarubicin hydrochloride] | 1.41 | < 0.826 | 0.851 | 1.1
13 | CC(C)C[C@H](NC(=O)CNC(=O)c1cc(Cl)ccc1Cl)B(O)O [Ixazomib (MLN9708)] | 2.51 | 2.12 | 2.6 | 2.8
14 | Cc1cc(Nc2ncc(Cl)c(Nc3ccccc3S(=O)(=O)C(C)C)n2)c(OC(C)C)cc1C1CCNCC1 [LDK378] | 2.8 | 3.08 | 2.55 | 2.84
15 | COC(=O)N[C@@H](C)CNc1nccc(-c2cn(C(C)C)nc2-c2cc(Cl)cc(NS(C)(=O)=O)c2F)n1 [LGX818] | < 0.826 | < 0.826 | 2.62 | 3.91
16 | CS(=O)(=O)CCNCc1ccc(-c2ccc3ncnc(Nc4ccc(OCc5cccc(F)c5)c(Cl)c4)c3c2)o1 [Lapatinib] | 2.84 | 3.12 | 2.43 | 2.54
17 | Cc1ccc(F)c(NC(=O)Nc2ccc(-c3cccc4[nH]nc(N)c34)cc2)c1 [Linifanib] | 4.2 | 3.05 | 3.77 | 3.7
18 | C[C@]1(O)C[C@@H](c2nc(-c3ccc4ccc(-c5ccccc5)nc4c3)c3c(N)nccn32)C1 [Linsitinib] | 3.68 | < 0.826 | 2.69 | 2.84
19 | CNC(=O)[C@@H](NC(=O)[C@H](CC(C)C)[C@H](O)C(=O)NO)C(C)(C)C [Marimastat] | > 4.4 | < 0.826 | 4.02 | 4.37
20 | Cc1ccc(NC(=O)c2ccc(CN3CCN(C)CC3)cc2)cc1Nc1nc(-c2cccnc2)cs1 [Masitinib mesylate] | 4.25 | 2.38 | 3.35 | 3.68
21 | N[C@@H](Cc1ccc(N(CCCl)CCCl)cc1)C(=O)O [Melphalan] | 3.34 | 3.27 | 2.26 | 3.09

Row | Structure (SMILES) | IC50 (log10 nM) [1] | IC50 (log10 nM) [2] | IC50 (log10 nM) [3] | IC50 (log10 nM) [4]
22 | CN(Cc1cnc2nc(N)nc(N)c2n1)c1ccc(C(=O)N[C@@H](CCC(=O)O)C(=O)O)cc1 [Methotrexate] | > 4.4 | 3.43 | 4.36 | 3.41
23 | CO[C@@]12[C@H](COC(N)=O)C3=C(C(=O)C(C)=C(N)C3=O)N1C[C@@H]1N[C@@H]12 [Mitomycin C] | 2.68 | 2.5 | 2.7 | 2.64
24 | O=C1c2c(O)ccc(O)c2C(=O)c2c(NCCNCCO)ccc(NCCNCCO)c21 [Mitoxantrone dihydrochloride] | 2.41 | 2.2 | 3.38 | 2.13
25 | CCOc1cc2ncc(C#N)c(Nc3ccc(OCc4ccccn4)c(Cl)c3)c2cc1NC(=O)/C=C/CN(C)C [Neratinib] | 3.13 | > 4.4 | 2.94 | 2.48
26 | Cc1sc2c(c1C)C(c1ccc(Cl)cc1)=N[C@@H](CC(=O)Nc1ccc(O)cc1)c1nnc(C)n1-2 [OTX-015] | 2.47 | 3.11 | 2.85 | 2.22
27 | COC1=CC(c2cc3ccccc3[nH]2)=N/C1=C\c1[nH]c(C)cc1C [Obatoclax] | 3.06 | 2.81 | 2.26 | 2.31
28 | C=CC(=O)Nc1cc(Nc2nccc(-c3cn(C)c4ccccc34)n2)c(OC)cc1N(C)CCN(C)C [Osimertinib] | 3.05 | 3.89 | 2.46 | 2.73
29 | C1=N/C2=N/c3ccc(OCCN4CCCC4)c(c3)COC/C=C/COCc3cccc(c3)C(=C1)N2 [Pacritinib] | 3.48 | 3.76 | 2.91 | 3.23
30 | CC(=O)c1c(C)c2cnc(Nc3ccc(N4CCNCC4)cn3)nc2n(C2CCCC2)c1=O [Palbociclib] | 4.37 | 4.07 | 4.13 | 4.24
31 | Cc1[nH]c2ccccc2c1CCNCc1ccc(/C=C/C(=O)NO)cc1 [Panobinostat] | 2.82 | 1.81 | 3.02 | 3.17
32 | Cc1ccc(Nc2nccc(N(C)c3ccc4c(C)n(C)nc4c3)n2)cc1S(N)(=O)=O [Pazopanib] | 1.42 | > 4.4 | > 4.4 | 4.21
33 | CCCCCCCCCCCCCCCCCCOP(=O)([O-])OC1CC[N+](C)(C)CC1 [Perifosine] | > 4.4 | < 0.826 | 1.16 | < 0.826
34 | Cc1ccc(C(=O)Nc2ccc(CN3CCN(C)CC3)c(C(F)(F)F)c2)cc1C#Cc1cnc2cccnn12 [Ponatinib] | 3.08 | 3.27 | 1.71 | 3.04
35 | CC(C)(C)c1cc(NC(=O)Nc2ccc(-c3cn4c(n3)sc3cc(OCCN5CCOCC5)ccc34)cc2)no1 [Quizartinib] | 3.09 | < 0.826 | 2.01 | 3.06
36 | COc1cc(Nc2ncc(F)c(Nc3ccc4c(n3)N(COP(=O)(O)O)C(=O)C(C)(C)O4)n2)cc(OC)c1OC [R788 disodium hexahydrate] | 2.99 | 3.21 | 2.5 | 3.46
37 | Cn1nccc1Nc1nccc(-c2ccn([C@H](CO)c3ccc(Cl)c(F)c3)c(=O)c2)n1 [Ravoxertinib] | > 4.4 | 3.74 | 3.44 | 3.18
38 | CNC(=O)c1cc(Oc2ccc(NC(=O)Nc3ccc(Cl)c(C(F)(F)F)c3)c(F)c2)ccn1 [Regorafenib] | 3.97 | 4.14 | 3.86 | 3.94
39 | CC1=C(/C=C/C(C)=C/C=C/C(C)=C/C(=O)O)C(C)(C)CCC1 [Retinoic acid] | > 4.4 | 0.928 | 3.82 | > 4.4
40 | COc1cc(OC)c(/C=C/S(=O)(=O)Cc2ccc(OC)c(NCC(=O)O)c2)c(OC)c1 [Rigosertib sodium] | 1.55 | 1.35 | 2.01 | 1.86
41 | C/C=C1\NC(=O)[C@H]2CSSCC/C=C/[C@H](CC(=O)N[C@H](C(C)C)C(=O)N2)OC(=O)[C@H](C(C)C)NC1=O [Romidepsin] | 0.852 | < 0.826 | 0.997 | < 0.826
